US20220362399A1, “COMPOSITIONS AND ARTICLES COMPRISING (NANO)DIAMOND PARTICLES” (Debina Diagnostics, Inc., priority 2019, published 2022)

How the values were obtained:
HepG-2 cells [1] = experiment: Cell counting assay, HepG-2; assay type: cell-based; conditions: Homo sapiens, HepG2; vincristine 50 μg/mL, 24 hours; read-out: proliferation, % of controls
Method: (§1) Cell counting was performed. The HepG-2 cell line was purchased from American Type Culture Collection (ATTC) (Manassas, Va., USA). Primary HUVEC were purchased from Lonza and used for experiments between the 5th-8th passages. Cells maintained (37° C. at 5% CO2 atmosphere) in their respective culture media as described above. HepG-2 and HUVEC were ‘seeded’ in 96-well plates (2×10^3 per well in 100 μL medium) and treated or not with FDP-NV-BSA for 24 hours. In each experiment, vincristine (50 μg/mL), a cell-cycle proliferation inhibitor, was added as a positive control. At 24 hrs, the medium was removed, the cells were fixed with 4% paraformaldehyde (PFA, ThermoFisher Sci) and the nuclei were stained using DAPI (4′,6-diamino-2-phenylindole, dihydrochloride, ThermoFisher Sci). The plates were analyzed in a fluorescence microscope (Olympus IX81, Olympus, Tokyo, Japan) by imaging 7 observation fields for each well using 100× magnification and DAPI (blue filter) for nuclei visualization, and TRITC (red filter) for FNDP-NV-BSA visualization. The number of viable cells in each field was determined by analysis of DAPI stained nuclei using ImageJ software (National Institutes of Health, Bethesda, Md., USA) with a digitally set-up cell counter.

HUVEC [2] = experiment: Cell counting assay, HUVEC; assay type: cell-based; conditions: Homo sapiens, vincristine 50 μg/mL, 24 hours, read-out: proliferation, % of controls
Method: as §1

HepG-2 cells [3] = experiment: MTT assay (redox state), HepG-2; assay type: cell-based, human; conditions: vincristine 50 μg/mL, 24 hours
Method: (§2) The MTT assay was performed as a colorimetric assay using the Cell Proliferation Assay Kit (ThermoFisher Sci), composed of component A (3-(4,5-dimethylthiazol-2-yl)-2,5-diphenyltetrazolium bromide (MTT)) and component B (SDS (sodium dodecyl sulfate)) according to manufacturer's protocol. Briefly, HepG-2 cells and HUVEC were seeded in 96-well plates at a density of 1×10^4 cells per well in media described above for each cell type. Cells were treated or not with FDP-NV-BSA or vincristine (50 μg/mL) for 24 hours. Media (100 μL) were changed to phenol red-free DMEM (Dulbecco's Modified Eagle Medium) (ThermoFisher Sci), containing MTT component A. Plates were incubated for 4 hours, and cells lysed by adding equal volumes of 10% SDS (kit component B). Plates were incubated overnight and read using an ELISA plate reader ELx800 (BioTek, Winooski, Vt., USA) at 562 nm wavelength.

HUVEC [4] = experiment: MTT assay (redox state), HUVEC; assay type: cell-based, human; conditions: vincristine 50 μg/mL, 24 hours
Method: as §2

CHOP and BiP [5] = experiment: ER-stress biomarkers (Western blot), HepG-2; assay type: cell-based, human; conditions: tunicamycin 25 μg/mL
Method: (§3) HepG-2 cells and HUVEC were treated (or not) with 0.1 mg/mL FDP-NV-BSA as described above. Treatment with vincristine (200 μg/mL) was used as a positive control for apoptosis, and with tunicamycin (25 μg/mL) as a positive control for ER-stress. A rabbit polyclonal antibody against caspase 3 (Cell Sign. Techn), which recognizes both the cleaved and the non-cleaved protein, was used for apoptosis detection. Rabbit mAb (clone C50B12) against BiP and mouse mAb (clone L63F7) against Chop (both from Cell Sign. Techn) were used for the detection of ER-stress. Equal loading of proteins was verified by membrane stripping and re-probing with an anti-actin mouse monoclonal antibody (Sigma Inc.).

CHOP and BiP [6] = experiment: ER-stress biomarkers (Western blot), HUVEC; assay type: cell-based, human; conditions: tunicamycin 25 μg/mL
Method: as §3

CC[C@]1(O)C[C@H]2CN(CCc3c([nH]c4ccccc34)[C@@](C(=O)OC)(c3cc4c(cc3OC)N(C=O)[C@H]3[C@@](O)(C(=O)OC)[C@H](OC(C)=O)[C@]5(CC)C=CCN6CC[C@]43[C@@H]65)C2)C1 [vincristine]
activity at 50 µg/mL (HepG-2 cells [1]): 50%
activity at 50 µg/mL (HUVEC [2]): 80%
redox activity, % of normal controls (HepG-2 cells [3]): 25-30%
redox activity, % of normal controls (HUVEC [4]): 25-30%

tunicamycin
ER-stress protein activation (CHOP and BiP [5]): sensitive
ER-stress protein activation (CHOP and BiP [6]): sensitive
